Read-outs that look alike come from different tables or passages of the source.
Experiments:
mLPCAT1 [1] = biological target: T1, mLPCAT1 (Mus musculus, UniProt Q3TFD2); experiment: acyltransferase activity assay, DPPC product; format: biochemical; settings: 20 μM compound; microsomal fractions of nonstimulated CHO-S-PAFR cells; n = 3, mean ± SEM
T1 construct: expressed in transfected cells; host or cells: CHO-S-PAFR cells, microsomal fraction
T1 sequence (Q3TFD2 1-534): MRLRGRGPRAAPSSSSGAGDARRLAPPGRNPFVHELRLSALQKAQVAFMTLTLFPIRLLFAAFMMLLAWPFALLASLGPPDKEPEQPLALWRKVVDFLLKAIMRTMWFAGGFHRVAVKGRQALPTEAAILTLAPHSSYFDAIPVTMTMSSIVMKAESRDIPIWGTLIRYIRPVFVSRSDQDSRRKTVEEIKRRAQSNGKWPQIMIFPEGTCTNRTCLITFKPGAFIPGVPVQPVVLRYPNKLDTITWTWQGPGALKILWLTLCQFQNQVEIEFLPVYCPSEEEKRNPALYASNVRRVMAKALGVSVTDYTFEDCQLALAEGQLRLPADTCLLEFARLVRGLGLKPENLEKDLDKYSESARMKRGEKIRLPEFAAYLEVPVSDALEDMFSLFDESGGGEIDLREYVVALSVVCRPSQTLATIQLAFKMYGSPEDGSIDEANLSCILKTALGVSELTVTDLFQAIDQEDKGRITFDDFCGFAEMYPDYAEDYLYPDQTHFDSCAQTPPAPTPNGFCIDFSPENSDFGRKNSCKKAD
Protocol: (§1) Microsomal protein fractions (0.5 μg) supplemented with the indicated compound concentrations were added to the reaction mixture containing 100 mM Tris-HCl (pH 7.4), 1 μM CaCl2, 0.015% Tween-20, and two substrates. For acetyltransferase activity, the substrates were 1 mM acetyl-CoA and 5 μM d4-lyso-PAF; for the acyltransferase activity of LPCAT1 or LPCAT2, the substrates were, respectively, palmitoyl-CoA and d31-16:0 LPC or arachidonoyl-CoA and d4-lyso-PAF (all 5 μM). Each lysophospholipid contained fatty acid at the sn-1 position. After incubation at 37°C for 5 min, the reactions were stopped by adding 300 μl methanol containing 17:0 LPC or 14:0/14:0 PC as an internal standard. Deuterium-labeled products were analyzed by LC-MS/MS (Waters, Milford, MA and Thermo Scientific, Waltham, MA). […]
(§2) arachidonoyl-CoA, 5 µM; palmitoyl-CoA, 5 µM; d4-lyso-PAF, 5 µM; and d31-LPC, 5 µM. […]
(§3) deuterium-labeled products were measured by LC-MS/MS. […]
(§4) Step 7 screening: species-specific differences
(§5) To evaluate the effects on the activity of mouse or human LPCAT1 and LPCAT2, each microsomal fraction was obtained using CHO-S-PAFR cells with or without mcPAF (200 nM) stimulation for 5 min. Acetyltransferase and acyltransferase assays were performed with 20 µM of each compound. Percentage inhibition was calculated in each

mLPCAT2 = biological target: T2, mLPCAT2 (Mus musculus, UniProt Q8BYI6); experiment: lyso-PAFAT (acetyltransferase) activity assay, PAF product; format: biochemical; settings: 20 μM compound; microsomal fractions of nonstimulated CHO-S-PAFR cells; n = 3, mean ± SEM
T2 construct: expressed in transfected cells; host or cells: CHO-S-PAFR cells, microsomal fraction, with or without mcPAF stimulation
T2 sequence (Q8BYI6 1-544): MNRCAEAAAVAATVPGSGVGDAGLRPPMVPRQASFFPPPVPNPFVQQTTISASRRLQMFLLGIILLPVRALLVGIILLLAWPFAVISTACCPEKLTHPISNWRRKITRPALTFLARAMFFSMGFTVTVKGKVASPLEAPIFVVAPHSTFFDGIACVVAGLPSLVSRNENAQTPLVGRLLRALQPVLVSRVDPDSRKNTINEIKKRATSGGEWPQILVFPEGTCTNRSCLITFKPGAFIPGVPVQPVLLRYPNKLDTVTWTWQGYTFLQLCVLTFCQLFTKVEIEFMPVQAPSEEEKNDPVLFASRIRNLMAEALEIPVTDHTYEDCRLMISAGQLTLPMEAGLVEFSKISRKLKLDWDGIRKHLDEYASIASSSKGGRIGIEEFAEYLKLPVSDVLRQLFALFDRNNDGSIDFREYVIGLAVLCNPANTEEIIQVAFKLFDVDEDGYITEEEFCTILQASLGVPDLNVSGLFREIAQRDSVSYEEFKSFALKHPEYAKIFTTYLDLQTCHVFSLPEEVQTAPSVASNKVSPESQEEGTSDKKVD
Protocol: as §1, §2, §3, §4, §5

mLPCAT1 [2] = biological target: T1, mLPCAT1; experiment: as above; format: biochemical; settings: 20 μM compound; microsomal fractions of nonstimulated CHO-S-PAFR cells; n = 3, mean ± SEM
Protocol: as §1, §2, §3, §4, §5

RAW-mLPCAT2 cells = experiment: cell viability assay (WST-8); format: cell-based, mouse; settings: Mus musculus, 1 h pretreatment
Protocol: (§6) Cell viability was measured using a modified MTT [3-(4,5-dimethylthiazol-2-yl)-2,5-diphenyltetrazolium bromide] dye reduction assay using WST-8 [2-(2-methoxy-4-nitrophenyl)-3-(4-nitrophenyl)-5-(2,4-disulfophenyl)-2H-tetrazolium, monosodium salt; Dojindo Molecular Technologies, Inc., Kumamoto, Japan] according to the manufacturer’s instructions. […] or RAW-mLPCAT2 cells were seeded in 96-well plates (1 × 10^4 cells/well) for 8 h and then treated with a compound for 36 h. WST-8 was added for another 2 h and the 450 nm absorbance was measured using a microplate reader (Bio-Rad). Cell viability was expressed as a percentage of vehicle-treated control values. To observe the effects of the incubation time on cell viability, 0.4 × 10^4 RAW-mLPCAT2 cells were treated with compounds for 1 or 6 h before the WST-8 assay.
(§7) Step 8 screening: cell viability assay
(§8) Wild-type RAW264.7 cells and RAW264.7 cells transfected with mLPCAT2 or control plasmid were used. Cells were cultured for 36 h with 0, 0.06, 0.2, 0.6, 2, 6, and 20 µM of compounds in 96-well plates and assayed for viability with WST-8. […]
(§9) The data were normalized to each positive control (100% activation). Percentage inhibition or IC50 were determined in each screening step. To assess screening quality, the percentage coefficient of variance and the Z’ factor was calculated for each plate or each assay as described previously (2).

[3] = cell viability assay (WST-8); format: cell-based, mouse; settings: mouse, RAW-mLPCAT2 cells (RAW264.7 cells transfected with mLPCAT2), 36 h treatment, WST-8, data not shown, read-out: cytotoxicity IC50 (cell viability)
Protocol: as §6, §7, §8, §9

[4] = cell viability assay (WST-8); format: cell-based; settings: mouse, RAW264.7 cells (wild-type), 36 h treatment, data not shown, read-out: cytotoxicity IC50 (cell viability)
Protocol: as §6, §7, §8, §9

percentage inhibition, product DPPC, mLPCAT1 (mLPCAT1 [1]) | percentage inhibition, product PAF, mLPCAT2 (mLPCAT2) | percentage inhibition, product PAF, mLPCAT1 (mLPCAT1 [2]) | SMILES | IC50 (RAW-mLPCAT2 cells) | IC50 at 36 h [3] | IC50 at 36 h [4]
36.3 ± 5.7 percentage | 84.1 ± 6.4 percentage | 33.6 ± 6.1 percentage | CC(C)OC(=O)c1ccc(N2C(=O)C(Cl)=C(Nc3ccccc3O)C2=O)cc1 [TSI-07] | > 60 µM | > 20 µM | > 20 µM
14.8 ± 10.9 percentage | 99.1 ± 0.2 percentage | 89.6 ± 1.1 percentage | CCCOC(=O)c1ccc(N2C(=O)C(Cl)=C(Cl)C2=O)cc1 [TSI-10] | > 60 µM | > 20 µM | > 20 µM
12.2 ± 20.5 percentage | 98.9 ± 0.3 percentage | 89.3 ± 1.1 percentage | CCCCOC(=O)c1ccc(N2C(=O)C(Cl)=C(Cl)C2=O)cc1 [TSI-11, butyl 4-(3,4-dichloro-2,5-dioxopyrrol-1-yl)benzoate] | > 60 µM | > 20 µM | > 20 µM

SMILES | percentage inhibition, product DPPC, mLPCAT1 (mLPCAT1 [1]) | percentage inhibition, product PAF, mLPCAT2 (mLPCAT2) | percentage inhibition, product PAF, mLPCAT1 (mLPCAT1 [2]) | IC50 (RAW-mLPCAT2 cells) | IC50 at 36 h [3] | IC50 at 36 h [4]
CC(C)OC(=O)c1ccc(N2C(=O)C(Cl)=C(Cl)C2=O)cc1 [TSI-01, propan-2-yl 4-(3,4-dichloro-2,5-dioxopyrrol-1-yl)benzoate] | 28.2 ± 4.0 percentage | 99.2 ± 0.2 percentage | 89.2 ± 1.8 percentage | > 60 µM | > 20 µM | > 20 µM
